Assay results reported in ChEMBL document CHEMBL1201862, “PubChem BioAssay data set” (2004).
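Growth conditions: 96-well plates. Treatment: test compound, 48 hours, 5 concentrations. Analysis: linear interpolation between bracketing concentrations; unreached endpoints set to highest concentration. The concentration for 50% growth inhibition is given as GI50.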 The source made the active and inactive calls. Cut-off read from the data, not from the text of the source: active = GI50 up to about 1.1 µM and inactive = higher.

Key:
Experiment in all cases: NCI-60 cell line screen, 48 h
786-0 = system: 786-0
A498 = system: A498
A549 = system: A549
ACHN = system: ACHN
BT-549 = system: BT-549
CAKI-1 = system: CAKI-1
CCRF-CEM = system: CCRF-CEM
COLO 205 = system: COLO 205
DU-145 = system: DU-145
EKVX = system: EKVX
HCC 2998 = system: HCC 2998
HCT-116 = system: HCT-116
HCT-15 = system: HCT-15
HL-60 = system: HL-60
HOP-92 = system: HOP-92
HT-29 = system: HT-29
Hs-578T = system: Hs-578T
IGROV-1 = system: IGROV-1
K562 = system: K562
KM12 = system: KM12
LOX IMVI = system: LOX IMVI
M14 = system: M14
MCF7 = system: MCF7
MDA-MB-231 = system: MDA-MB-231
MDA-MB-435 = system: MDA-MB-435
MDA-N = system: MDA-N
MOLT-4 = system: MOLT-4
Malme-3M = system: Malme-3M
NCI-H226 = system: NCI-H226
NCI-H23 = system: NCI-H23
NCI-H460 = system: NCI-H460
NCI-H522 = system: NCI-H522
NCI/ADR-RES = system: NCI/ADR-RES
OVCAR-3 = system: OVCAR-3
OVCAR-4 = system: OVCAR-4
OVCAR-5 = system: OVCAR-5
OVCAR-8 = system: OVCAR-8
PC-3 = system: PC-3
RXF 393 = system: RXF 393
SF-268 = system: SF-268
SF-295 = system: SF-295
SF-539 = system: SF-539
SK-MEL-28 = system: SK-MEL-28
SK-MEL-2 = system: SK-MEL-2
SK-MEL-5 = system: SK-MEL-5
SK-OV-3 = system: SK-OV-3
SN12C = system: SN12C
SNB-19 = system: SNB-19
SW-620 = system: SW-620
T47D = system: T47D
TK-10 = system: TK-10
U-251 = system: U-251
UACC-257 = system: UACC-257
UACC-62 = system: UACC-62
UO-31 = system: UO-31
HOP-62 = system: HOP-62
RPMI-8226 = system: RPMI-8226
SNB-75 = system: SNB-75

CNC(C#N)c1ccc(OC)cc1 (stereo unspecified)
GI50 (786-0): > 100 µM (inactive)
GI50 (A498): > 100 µM (inactive)
GI50 (A549): > 100 µM (inactive)
GI50 (ACHN): > 100 µM (inactive)
GI50 (BT-549): > 100 µM (inactive)
GI50 (CAKI-1): > 100 µM (inactive)
GI50 (CCRF-CEM): 53.3 µM (inactive)
GI50 (COLO 205): 71.3 µM (inactive)
GI50 (DU-145): > 100 µM (inactive)
GI50 (EKVX): > 100 µM (inactive)
GI50 (HCC 2998): > 100 µM (inactive)
GI50 (HCT-116): 57 µM (inactive)
GI50 (HCT-15): > 100 µM
GI50 (HL-60): 28.6 µM (inactive)
GI50 (HOP-92): 92.5 µM (inactive)
GI50 (HT-29): 61.1 µM (inactive)
GI50 (Hs-578T): > 100 µM (inactive)
GI50 (IGROV-1): > 100 µM (inactive)
GI50 (K562): 34.1 µM (inactive)
GI50 (KM12): 78.9 µM (inactive)
GI50 (LOX IMVI): > 100 µM (inactive)
GI50 (M14): > 100 µM (inactive)
GI50 (MCF7): > 100 µM (inactive)
GI50 (MDA-MB-231): > 100 µM (inactive)
GI50 (MDA-MB-435): 33.6 µM (inactive)
GI50 (MDA-N): 33.1 µM (inactive)
GI50 (MOLT-4): 43.7 µM (inactive)
GI50 (Malme-3M): > 100 µM (inactive)
GI50 (NCI-H226): > 100 µM (inactive)
GI50 (NCI-H23): > 100 µM (inactive)
GI50 (NCI-H460): > 100 µM (inactive)
GI50 (NCI-H522): 75.5 µM (inactive)
GI50 (NCI/ADR-RES): > 100 µM (inactive)
GI50 (OVCAR-3): 61 µM (inactive)
GI50 (OVCAR-4): > 100 µM (inactive)
GI50 (OVCAR-5): > 100 µM (inactive)
GI50 (OVCAR-8): > 100 µM (inactive)
GI50 (PC-3): 54 µM (inactive)
GI50 (RXF 393): > 100 µM (inactive)
GI50 (SF-268): > 100 µM (inactive)
GI50 (SF-295): > 100 µM (inactive)
GI50 (SF-539): > 100 µM (inactive)
GI50 (SK-MEL-28): > 100 µM (inactive)
GI50 (SK-MEL-2): 26.4 µM (inactive)
GI50 (SK-MEL-5): 25.8 µM (inactive)
GI50 (SK-OV-3): > 100 µM (inactive)
GI50 (SN12C): > 100 µM (inactive)
GI50 (SNB-19): > 100 µM (inactive)
GI50 (SW-620): 94.2 µM (inactive)
GI50 (T47D): 61.5 µM (inactive)
GI50 (TK-10): > 100 µM (inactive)
GI50 (U-251): 53.3 µM (inactive)
GI50 (UACC-257): 54.8 µM (inactive)
GI50 (UACC-62): > 100 µM (inactive)
GI50 (UO-31): > 100 µM (inactive)

COc1ccc2c(C=O)c3n(c(=O)c2c1OC)CCc1cc2c(cc1-3)OCO2
GI50 (786-0): 90.2 µM (inactive)
GI50 (A498): > 100 µM (inactive)
GI50 (A549): 22.3 µM (inactive)
GI50 (ACHN): 69.2 µM (inactive)
GI50 (BT-549): 18.9 µM (inactive)
GI50 (CAKI-1): > 100 µM (inactive)
GI50 (CCRF-CEM): > 100 µM (inactive)
GI50 (COLO 205): 15.9 µM (inactive)
GI50 (DU-145): 78.3 µM (inactive)
GI50 (EKVX): 35.6 µM (inactive)
GI50 (HCC 2998): 14.2 µM (inactive)
GI50 (HCT-116): 26.3 µM (inactive)
GI50 (HCT-15): 27.7 µM
GI50 (HL-60): 29.7 µM (inactive)
GI50 (HOP-62): > 100 µM (inactive)
GI50 (HOP-92): 10.9 µM (inactive)
GI50 (HT-29): 17.6 µM (inactive)
GI50 (Hs-578T): > 100 µM (inactive)
GI50 (IGROV-1): 56.6 µM (inactive)
GI50 (KM12): 27.9 µM (inactive)
GI50 (M14): 18.6 µM (inactive)
GI50 (MCF7): 21.8 µM (inactive)
GI50 (MDA-MB-231): > 100 µM (inactive)
GI50 (MDA-MB-435): 22.5 µM (inactive)
GI50 (MDA-N): 20 µM (inactive)
GI50 (MOLT-4): 4.59 µM (inactive)
GI50 (Malme-3M): 80 µM (inactive)
GI50 (NCI-H226): > 100 µM (inactive)
GI50 (NCI-H23): 27.2 µM (inactive)
GI50 (NCI-H460): 53.6 µM (inactive)
GI50 (NCI-H522): 30.4 µM (inactive)
GI50 (NCI/ADR-RES): 18.6 µM (inactive)
GI50 (OVCAR-3): 80.5 µM (inactive)
GI50 (OVCAR-4): > 100 µM (inactive)
GI50 (OVCAR-5): > 100 µM (inactive)
GI50 (OVCAR-8): 23.4 µM (inactive)
GI50 (PC-3): 15.1 µM (inactive)
GI50 (RPMI-8226): 3.68 µM (inactive)
GI50 (RXF 393): 2.91 µM (inactive)
GI50 (SF-268): > 100 µM (inactive)
GI50 (SF-295): 46 µM (inactive)
GI50 (SF-539): > 100 µM (inactive)
GI50 (SK-MEL-28): > 100 µM (inactive)
GI50 (SK-MEL-2): 25.9 µM (inactive)
GI50 (SK-MEL-5): 24 µM (inactive)
GI50 (SK-OV-3): > 100 µM (inactive)
GI50 (SN12C): 41.3 µM (inactive)
GI50 (SNB-19): 76.4 µM (inactive)
GI50 (SNB-75): 18.9 µM (inactive)
GI50 (SW-620): 38.6 µM (inactive)
GI50 (T47D): 10.8 µM (inactive)
GI50 (TK-10): 96.8 µM (inactive)
GI50 (U-251): 40.6 µM (inactive)
GI50 (UACC-257): 32.2 µM (inactive)
GI50 (UACC-62): 21 µM (inactive)
GI50 (UO-31): 51.8 µM (inactive)
